Results from patent publication US20040138272A1, “1,4-Substituted cyclohexane derivatives” (priority 2002, published 2004).

Tested on: NG108-15 neuronal cell line
Experiment: Rapid bioassay of neurite growth in NG108-15 cells
Assay type: cell-based
Procedure: When neurons are placed on inhibitory substrates in tissue culture, the neurons remain rounded. When an effective Rho kinase inhibitor is added to the neurons, the neurons are able to grow neurites on myelin substrates. The time that it takes for neurons to grow neurites after the addition of a Rho kinase inhibitor is about the same as the time that it takes for neurons to grow neurites if the neurons had been plated on growth permissive substrate such as laminin or polylysine, which time is typically 1 to 2 days in cell culture. An assessment of resulting neurite growth can be scored by visual means. If needed, a quantitative assessment of neurite growth can be performed. This involves measuring after a time such as 1 to 2 days the neurite length a) in control cultures where neurons are plated on myelin substrates and left untreated with Rho kinase inhibitor for such time, b) in positive control cultures, wherein for example neurons are plated on polylysine but left untreated with Rho kinase inhibitor for such time, and c) in cultures analogous to a) and b) that are treated with different concentrations of a Rho kinase inhibitor for such time. […] In this assay, NG108 cells are plated on plastic in the presence or absence of the test substance (a Rho kinase inhibitor). […] The relative efficacy can be assessed by fixing the cultures 5 hours after plating, and counting the number of cells that have grown neurites.
A rapid bioassay is used to determine the effect of a test compounds on the stimulation of neurite growth in vitro. A neuronal cell line, NG108-15 (ATCC HB-12317), is maintained in culture in Dulbecco's minimal essential medium (DMEM) supplemented with 10% fetal bovine serum, Penicillin/Streptomycin and HAT supplement (Gibco/BRL). For the bioassay, the cells are collected by trypsinisation and ressuspended in DMEM supplemented with 5% FBS, Penicillin/Streptomycin, HAT supplement and 0.25 mg/ml cAMP, adjusted to 1.0×10^4 cells/ml. The cells are plated into wells of a 96 well plate at 100 μls (1000 cells)/well. Cells are incubated 4 h at 37° C. and 5% CO2 in presence of small molecules or cethrin at a concentration of 1000 cells per well of a 96-wells plate in a final volume of 100 ul.
After incubation, cells are fixed by adding […] 16% PFA and 5.4 μls 2.5% glutaraldehyde to the media in each well. The wells are stained with cresyl violet 0.05% , 100 μls/well for 15 min. Cells with neurites (length≧one cell body) are counted using an inverted light microscope. The % neurite outgrowth is determined by calculating the number of cells with neurites over the total number of counted cells.

## (R)-trans-4-(But-3′-en-1′-amino)-N-(4″-pyridyl)cyclohexane Carboxamide Dihydrochloride [BA-1016]
BA-1016 versus BA-1017
  efficacy of the stereoisomers compared (FIG. 2): better efficacy
NG108 cells, 3.1 to 31 μM
  neurite outgrowth (FIG. 2): promote neurite outgrowth
